Assay results published in ChEMBL document CHEMBL2203227, “Macrocycles are great cycles: applications, opportunities, and challenges of synthetic macrocycles in drug discovery” (J Med Chem, 2011).
Where a SMILES comes first, the peptide text is derived from it. [ ]: non-standard residue; d: D form. The star is where a group is joined. Hyp = O=C(O)[C@@H]1C[C@@H](O)CN1; Nva = CCC[C@H](N)C(=O)O; Bn = c1ccc(C*)cc1

Legend:
[1] = Inhibition of FTase
[2] = Inhibition of GGTase
[3] = molecular target: Prothrombin (Homo sapiens, UniProt P00734); experiment: Inhibition of thrombin
[4] = molecular target: Sonic hedgehog protein (Mus musculus) (UniProt Q62226); experiment: Inhibition of sonic hedgehog pathway in mouse NIH-3T3 cells relative to control; format: cell-based; conditions: NIH3T3
[5] = molecular target: T1, Renin (Homo sapiens, UniProt P00797); experiment: Inhibition of renin
T1 sequence (P00797 whole entry): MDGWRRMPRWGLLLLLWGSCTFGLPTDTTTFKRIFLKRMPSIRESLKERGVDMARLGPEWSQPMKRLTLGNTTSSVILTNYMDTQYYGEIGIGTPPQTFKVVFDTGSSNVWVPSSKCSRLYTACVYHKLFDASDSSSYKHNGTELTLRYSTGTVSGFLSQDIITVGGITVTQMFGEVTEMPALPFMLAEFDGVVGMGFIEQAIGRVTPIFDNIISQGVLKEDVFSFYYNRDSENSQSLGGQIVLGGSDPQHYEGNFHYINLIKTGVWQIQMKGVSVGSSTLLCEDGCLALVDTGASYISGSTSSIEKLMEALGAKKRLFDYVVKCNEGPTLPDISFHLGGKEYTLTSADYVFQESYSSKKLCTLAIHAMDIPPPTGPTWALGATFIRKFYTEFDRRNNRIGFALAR

[6] = Inhibition of HIV protease; set-up: species or system Human immunodeficiency virus
[7] = molecular target: Ras-related protein Rap-1A (Homo sapiens, UniProt P62834); experiment: Inhibition of Rap1a
Sequence of Ras-related protein Rap-1A (P62834 whole entry): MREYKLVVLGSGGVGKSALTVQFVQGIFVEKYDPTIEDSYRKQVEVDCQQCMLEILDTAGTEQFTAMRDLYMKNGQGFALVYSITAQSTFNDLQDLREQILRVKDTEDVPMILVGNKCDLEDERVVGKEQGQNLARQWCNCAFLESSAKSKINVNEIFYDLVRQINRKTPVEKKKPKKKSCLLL

[8] = molecular target: GTPase KRas (Homo sapiens, UniProt P01116); experiment: Inhibition of Ki-Ras
Sequence of GTPase KRas (P01116 whole entry): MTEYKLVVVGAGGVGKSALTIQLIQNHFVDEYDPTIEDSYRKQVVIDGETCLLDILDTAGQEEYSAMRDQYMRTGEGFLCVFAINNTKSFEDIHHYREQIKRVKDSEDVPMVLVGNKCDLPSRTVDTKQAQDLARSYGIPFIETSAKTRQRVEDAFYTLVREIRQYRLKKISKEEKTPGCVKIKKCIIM

[9] = molecular target: DnaJ homolog subfamily A member 1 (Homo sapiens, UniProt P31689); experiment: Inhibition of HDJ2
Sequence of DnaJ homolog subfamily A member 1 (P31689 whole entry): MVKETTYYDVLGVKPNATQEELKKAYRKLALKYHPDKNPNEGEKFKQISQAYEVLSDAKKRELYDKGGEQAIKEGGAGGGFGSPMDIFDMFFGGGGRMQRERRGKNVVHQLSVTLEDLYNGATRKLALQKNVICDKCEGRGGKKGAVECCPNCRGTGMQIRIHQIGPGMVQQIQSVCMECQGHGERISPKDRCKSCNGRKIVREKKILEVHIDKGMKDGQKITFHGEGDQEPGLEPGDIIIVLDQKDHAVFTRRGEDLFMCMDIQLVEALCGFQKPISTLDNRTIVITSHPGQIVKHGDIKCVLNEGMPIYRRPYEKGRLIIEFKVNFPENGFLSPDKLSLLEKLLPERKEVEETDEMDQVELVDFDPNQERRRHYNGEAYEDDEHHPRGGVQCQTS

[10] = test system: MCF7; experiment: cells; conditions: Homo sapiens
Description: Antiproliferative activity against human MCF7 cells

[11] = molecular target: Growth hormone secretagogue receptor type 1 (Homo sapiens, UniProt Q92847); experiment: Agonist activity at ghrelin receptor; format: functional
Sequence of Growth hormone secretagogue receptor type 1 (Q92847 whole entry): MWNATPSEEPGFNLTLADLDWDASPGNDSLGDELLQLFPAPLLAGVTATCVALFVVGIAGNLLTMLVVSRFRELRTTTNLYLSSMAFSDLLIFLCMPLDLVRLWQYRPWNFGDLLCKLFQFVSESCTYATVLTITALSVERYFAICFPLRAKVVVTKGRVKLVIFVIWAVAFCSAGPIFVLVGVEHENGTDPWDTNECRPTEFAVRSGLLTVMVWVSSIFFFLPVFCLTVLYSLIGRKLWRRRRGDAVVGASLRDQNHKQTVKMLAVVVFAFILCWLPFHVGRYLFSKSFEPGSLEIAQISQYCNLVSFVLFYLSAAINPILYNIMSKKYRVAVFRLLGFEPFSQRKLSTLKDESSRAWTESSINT

[12] = molecular target: Beta-secretase 1 (Homo sapiens, UniProt P56817); experiment: Inhibition of BACE1
Sequence of Beta-secretase 1 (P56817 whole entry): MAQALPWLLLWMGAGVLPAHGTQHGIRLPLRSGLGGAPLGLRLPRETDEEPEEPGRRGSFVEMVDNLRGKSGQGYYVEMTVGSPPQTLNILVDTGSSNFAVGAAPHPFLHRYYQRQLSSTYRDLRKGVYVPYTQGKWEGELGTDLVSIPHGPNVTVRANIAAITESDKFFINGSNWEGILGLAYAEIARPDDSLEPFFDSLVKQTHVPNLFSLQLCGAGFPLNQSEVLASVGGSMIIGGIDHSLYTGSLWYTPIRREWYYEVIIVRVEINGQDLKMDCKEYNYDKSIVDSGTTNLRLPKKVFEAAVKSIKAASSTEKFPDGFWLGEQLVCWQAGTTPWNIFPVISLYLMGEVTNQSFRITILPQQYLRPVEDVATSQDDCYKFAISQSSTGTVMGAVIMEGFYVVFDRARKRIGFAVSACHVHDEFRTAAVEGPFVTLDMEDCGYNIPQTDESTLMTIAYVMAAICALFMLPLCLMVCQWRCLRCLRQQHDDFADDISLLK

[13] = Selectivity ratio of IC50 for trypsin to IC50 for thrombin
[14] = Selectivity ratio of IC50 for tPa to IC50 for thrombin
[15] = Inhibition of HCV NS3 protease; set-up: species or system Hepacivirus hominis
[16] = test system: Hepatitis C virus; experiment: microbe, parasite or virus in culture
Description: Antiviral activity against HCV by cell based replicon assay

[17] = molecular target: Neprilysin (Homo sapiens, UniProt P08473); experiment: Inhibition of neutral endopeptidase
Sequence of Neprilysin (P08473 whole entry): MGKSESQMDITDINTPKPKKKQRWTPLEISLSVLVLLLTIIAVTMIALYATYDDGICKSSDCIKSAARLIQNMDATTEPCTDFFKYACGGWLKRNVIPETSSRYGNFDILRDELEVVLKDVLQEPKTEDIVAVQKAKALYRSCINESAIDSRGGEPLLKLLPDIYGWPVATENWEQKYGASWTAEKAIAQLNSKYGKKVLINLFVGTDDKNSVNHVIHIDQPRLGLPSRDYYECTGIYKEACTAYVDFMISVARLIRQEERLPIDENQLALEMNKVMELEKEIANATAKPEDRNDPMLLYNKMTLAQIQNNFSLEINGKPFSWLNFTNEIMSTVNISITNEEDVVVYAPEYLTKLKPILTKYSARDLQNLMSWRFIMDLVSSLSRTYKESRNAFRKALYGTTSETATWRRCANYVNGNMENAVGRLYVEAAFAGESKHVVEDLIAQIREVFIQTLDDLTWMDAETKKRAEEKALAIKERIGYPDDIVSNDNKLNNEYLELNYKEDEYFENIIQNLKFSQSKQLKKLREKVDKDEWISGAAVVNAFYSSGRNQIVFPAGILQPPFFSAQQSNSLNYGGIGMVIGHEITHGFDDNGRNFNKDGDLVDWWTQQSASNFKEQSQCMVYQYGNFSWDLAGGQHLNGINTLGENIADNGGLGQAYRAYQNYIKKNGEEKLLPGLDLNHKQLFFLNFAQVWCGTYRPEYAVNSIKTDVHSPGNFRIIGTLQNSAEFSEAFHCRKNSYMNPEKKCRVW

[18] = test system: Hepatitis C virus; experiment: Inhibition of HCV 1b NS3 protease; set-up: species or system Hepatitis C virus subtype 1b
[19] = Inhibition of HCV 1a NS3 protease; set-up: species or system Hepatitis C virus subtype 1a
[20] = Inhibition of HDAC by fluorimetry assay
[21] = Oral bioavailability in rat; format: ADME, organism-based; conditions: in vivo
[22] = Half life in dog; format: ADME, organism-based, Canis lupus familiaris; conditions: in vivo
[23] = molecular target: Angiotensin-converting enzyme (Homo sapiens, UniProt P12821); experiment: Inhibition of ACE
Sequence of Angiotensin-converting enzyme (P12821 whole entry): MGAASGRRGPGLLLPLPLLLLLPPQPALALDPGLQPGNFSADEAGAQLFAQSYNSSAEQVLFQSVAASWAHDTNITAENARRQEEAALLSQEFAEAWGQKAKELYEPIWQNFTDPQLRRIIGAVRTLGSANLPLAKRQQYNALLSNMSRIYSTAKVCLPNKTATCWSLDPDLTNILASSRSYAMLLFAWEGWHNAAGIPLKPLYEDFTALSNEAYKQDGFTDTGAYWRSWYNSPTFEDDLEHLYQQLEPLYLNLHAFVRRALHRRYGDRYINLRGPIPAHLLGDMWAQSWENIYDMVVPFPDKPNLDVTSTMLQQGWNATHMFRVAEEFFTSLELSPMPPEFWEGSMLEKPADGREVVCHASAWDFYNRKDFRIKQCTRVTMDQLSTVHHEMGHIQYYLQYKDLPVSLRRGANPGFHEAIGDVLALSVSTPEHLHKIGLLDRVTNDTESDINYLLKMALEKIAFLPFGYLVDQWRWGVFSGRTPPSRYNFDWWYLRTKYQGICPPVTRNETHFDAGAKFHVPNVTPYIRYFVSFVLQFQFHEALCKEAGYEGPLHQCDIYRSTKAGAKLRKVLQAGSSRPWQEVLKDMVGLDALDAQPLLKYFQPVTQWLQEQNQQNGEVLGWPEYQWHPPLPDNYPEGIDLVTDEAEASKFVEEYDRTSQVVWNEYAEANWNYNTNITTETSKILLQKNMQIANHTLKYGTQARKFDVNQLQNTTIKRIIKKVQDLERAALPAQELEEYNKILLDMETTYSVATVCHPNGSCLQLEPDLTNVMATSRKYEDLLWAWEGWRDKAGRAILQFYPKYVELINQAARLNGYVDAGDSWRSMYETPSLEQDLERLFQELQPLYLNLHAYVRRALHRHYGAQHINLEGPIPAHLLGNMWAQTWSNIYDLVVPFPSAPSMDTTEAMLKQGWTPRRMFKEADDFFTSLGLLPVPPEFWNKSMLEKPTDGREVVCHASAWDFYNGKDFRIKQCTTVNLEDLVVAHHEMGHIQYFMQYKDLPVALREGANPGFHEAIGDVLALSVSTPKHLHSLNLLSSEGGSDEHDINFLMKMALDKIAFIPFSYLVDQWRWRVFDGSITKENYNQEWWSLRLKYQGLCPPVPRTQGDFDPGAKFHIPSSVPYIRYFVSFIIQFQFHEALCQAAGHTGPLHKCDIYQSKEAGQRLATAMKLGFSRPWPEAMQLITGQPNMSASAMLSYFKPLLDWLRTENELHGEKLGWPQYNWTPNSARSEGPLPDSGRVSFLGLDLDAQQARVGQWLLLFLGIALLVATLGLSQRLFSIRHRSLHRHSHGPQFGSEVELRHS

N#Cc1ccc2cc1Oc1ccc3c(c1)[C@@H](CC3)N1CC[C@@H](NCc3cncn3C2)C1=O
IC50 [1]: < 1.6 nM
IC50 [2]: 18000 nM

O=C1COc2ccc(Cl)cc2CNC(=O)[C@@H]2CCCN2C(=O)[C@@H](C2CCCCC2)NC(=O)CCN1
Ki [3]: 0.4 nM

C[C@H]1COC(=O)[C@@H](N)CC/C=C/C[C@@H](CC(=O)N(CCO)Cc2ccccc2)C(=O)N1
Emax [4]: 30%

CC(C)(C)C(=O)NCCOC(=O)N[C@@H](Cc1ccccc1)C(=O)N[C@H]1CCC(=O)NCCOC(=O)[C@H](O)[C@H](CC2CCCCC2)NC1=O
IC50 [5]: 56 nM

COc1ccc(S(=O)(=O)N(CC(C)C)C[C@@H](O)[C@@H]2CCCCCCCCOc3c(O)cccc3C(=O)N2)cc1
IC50 [6]: 300 nM
Ki [6]: 0.7 nM

N#Cc1ccc2cc1Oc1ccc(CCC3CCCCC3)c(c1)CN1CCN(CC1=O)Cc1cncn1C2
IC50 [1]: 1.6 nM
IC50 [2]: 1.7 nM
EC50 [7]: 140 nM
EC50 [8]: 1060 nM
EC50 [9]: 12 nM

C[C@H]1NCc2cncn2Cc2ccc(C#N)c(c2)Oc2ccc3cccc(c3c2)NC1=O
IC50 [1]: 1.3 nM
IC50 [2]: 313 nM

O=S1(=O)NCCCNc2nc(ncc2Br)Nc2cccc1c2
IC50 [10]: 200 nM

CCC[C@@H]1NCCOc2ccccc2/C=C/CNC(=O)[C@@H](Cc2ccccc2)NC(=O)CN(C)C1=O
EC50 [11]: 68 nM

CC[C@H](C)[C@H](NC(=O)[C@@H](NC[C@@H]1COCCCN(C(=O)[C@H](Cc2ccccc2)NC(=O)OC(C)(C)C)[C@@H](C)C(=O)N1)C(C)C)C(=O)N[C@@H](Cc1cnc[nH]1)C(=O)OC
IC50 [5]: > 100000 nM

COc1ccc2c(c1)OCC/C=C\CCCCN(C[C@@H](O)[C@H](Cc1ccccc1)NC(=O)O[C@H]1CO[C@H]3OCC[C@H]31)S2(=O)=O
IC50 [6]: 4.6 nM
Ki [6]: 0.012 nM

CC(C)CN(C[C@@H](O)[C@H](Cc1ccccc1)NC(=O)O[C@H]1CO[C@H]2OCC[C@H]21)S(=O)(=O)c1ccc(N)cc1
Ki [6]: 0.015 nM

CCCN(c1cc(COC(=O)[C@](C)(N)Cc2ccccc2)cc(C(=O)N[C@H](C)c2ccc(F)cc2)c1)S(C)(=O)=O
IC50 [12]: 27 nM

O=C1Cn2c(Cl)cnc(c2=O)N[C@@H](Cc2ccccc2)CNCCCNCCOc2ccc(Cl)cc2CN1
Ratio IC50 [13]: 23000
Ki [3]: 0.09 nM
Ratio IC50 [14]: 7100

CCC[C@H](NC(=O)[C@@H]1C[C@@H](OCc2ccccc2)CN1C(=O)[C@@H](NC(=O)[C@@H](NC(=O)[C@H](CC(=O)O)NC(=O)[C@H](CC(=O)O)NC(C)=O)[C@@H](C)CC)C(C)C)C(=O)O (Ac-DDIV[Hyp](Bn)[Nva]-OH)
IC50 [15]: 7000 nM

CC[C@H](C)[C@@H]1NCCOc2ccccc2CCCNC(=O)[C@@H](Cc2ccccc2)NC(=O)[C@@H](C)N(C)C1=O
Ki [11]: 6 nM

Cc1ncn(Cc2ccc(C#N)cc2)c1CN1CC(=O)N(c2cccc(Cl)c2)C[C@@H]1CCS(C)(=O)=O
IC50 [1]: 475 nM

CC[C@H](C)[C@H](NC(=O)[C@@H](NC[C@@H]1COCCCCCN(C(=O)[C@H](Cc2ccccc2)NC(=O)OC(C)(C)C)[C@@H](C)C(=O)N1)C(C)C)C(=O)N[C@@H](Cc1cnc[nH]1)C(=O)OC
IC50 [5]: 69000 nM

COc1ccc2c(c1)OCC/C=C/CCCCN(C[C@@H](O)[C@H](Cc1ccccc1)NC(=O)O[C@H]1CO[C@H]3OCC[C@H]31)S2(=O)=O
IC50 [6]: 7 nM
Ki [6]: 0.06 nM

NC(N)=NCCC[C@@H]1NC(=O)[C@@H]2CCCN2C(=O)[C@@H](NC=O)CNC(=O)/C=C/[C@H](Cc2ccc(O)cc2)NC(=O)[C@@H](Cc2ccccc2)NC(=O)C1=O [CYCLOTHEONAMIDE A]
Ki [3]: 180 nM

O=C(C[C@@H]1C/C=C/CCC(=O)O[C@H](c2ccccc2)CNC1=O)NCc1ccc(Cl)cc1
Emax [4]: 91%

CC[C@H](C)[C@H](NC(=O)[C@@H]1CCCN1C[C@H](O)[C@@H]1Cc2ccc(cc2)OCCCC(=O)N[C@@H](CC(N)=O)C(=O)N1)C(=O)N[C@H](C(N)=O)C(C)C
Ki [6]: 12 nM

O=C1COc2ccc(Cl)cc2CNC(=O)[C@@H]2CCCN2C(=O)[C@@H](C2CCCCC2)NC(=O)CCCCN1
Ratio IC50 [13]: > 2000
Ki [3]: 0.4 nM
Ratio IC50 [14]: > 2000

C=C[C@@H]1C[C@]1(NC(=O)[C@@H]1C[C@@H]2CN1C(=O)[C@H](C(C)(C)C)NC(=O)OCCCCCc1ccc3nc(-c4ccccc4)cc(c3c1)O2)C(=O)NS(=O)(=O)C1CC1
Ki [15]: < 0.016 nM
EC50 [16]: 6.7 nM

O=C1N[C@H](C(=O)N2C[C@H](O)C[C@H]2C(=O)O)CCCCCC[C@H]1CS
IC50 [17]: 0.8 nM

COc1ccc2c(O[C@@H]3C[C@H]4C(=O)N[C@]5(C(=O)O)C[C@H]5/C=C\CCCCC[C@H](NC(=O)OC(C)(C)C)C(=O)N4C3)cc(-c3ccccc3)nc2c1
Ki [18]: 1 nM
EC50 [16]: 7 nM
Ki [19]: 1.4 nM

CC[C@H](C)[C@@H]1NC(=O)[C@@H](NC[C@H](O)[C@H](Cc2ccccc2)NC(=O)OC(C)(C)C)Cc2ccc(cc2)Oc2ccc(cc2)C[C@@H](C(=O)OC)NC1=O
Ki [6]: 15 nM

O=C1COc2ccc(Cl)cc2CNC(=O)[C@@H]2CCCN2C(=O)[C@@H](C2CCCCC2)NC(=O)CCCN1
Ratio IC50 [13]: > 2000
Ratio IC50 [14]: > 2000

O=C1COc2ccc(Cl)cc2CNC(=O)[C@@H]2CCCN2C(=O)[C@@H](C2CCCCC2)NC(=O)CN1
Ratio IC50 [13]: > 2000
Ki [3]: 0.4 nM
Ratio IC50 [14]: > 2000

C=C[C@@H]1C[C@]1(NC(=O)[C@@H]1C[C@@H](Oc2cc(-c3ccccc3)nc3cc(OC)ccc23)CN1C(=O)[C@@H](NC(=O)[C@@H](NC(C)=O)C1CCCCC1)C(C)(C)C)C(=O)O
IC50 [15]: 1 nM

CC[C@H](C)[C@@H]1NC(=O)[C@@H](NC[C@@H](O)[C@@H]2Cc3ccc(cc3)OCCCCC(=O)N[C@@H](C(C)C)C(=O)N2)Cc2ccc(cc2)OCCCNC1=O
Ki [6]: 3 nM

O=C(CCCCCC1C2=NC(Cc3ccccc3)=C(O2)C(Cc2ccccc2)CCCCn2cc(nn2)CCCN1Cc1ccccc1)NO (stereo unspecified)
IC50 [20]: 6100 nM

CC(C)CCN(C[C@@H](O)[C@@H]1Cc2ccc(cc2)OCCCC(=O)N[C@@H](CC(N)=O)C(=O)N1)S(=O)(=O)c1ccccc1
Ki [6]: 0.6 nM

C[C@@H]1CN[C@@H](C2CC2)C(=O)N(C)[C@H](C)C(=O)N[C@H](Cc2ccc(F)cc2)C(=O)NCCCc2ccccc2O1 [ULIMORELIN]
EC50 [11]: 27 nM
bioavailability [21]: 16%

O=C(CCCCCC1C2=NC(Cc3ccccc3)=C(O2)C(Cc2ccccc2)CCn2cc(nn2)CCCN1Cc1ccccc1)NO (stereo unspecified)
IC50 [20]: 4300 nM

CC[C@H](C)[C@H](NC(=O)[C@@H](C[C@H](O)[C@H](CC1CCCCC1)NC(=O)[C@@H]1Cc2cn(cn2)CC(=O)N2CCC[C@H]2C(=O)N[C@@H](Cc2ccccc2)C(=O)N1)C(C)C)C(=O)NCc1ccccn1
IC50 [5]: 0.29 nM

CC[C@H](C)[C@@H]1NC(=O)[C@@H](NC[C@@H](O)[C@H](Cc2ccc(O)cc2)NC[C@H](C(C)C)N2CCCC2=O)Cc2ccc(cc2)OCCCNC1=O
Ki [6]: 1.8 nM

N#Cc1ccc2cc1Oc1ccc3cccc(c3c1)N1CCN(CC1=O)Cc1cncn1C2
IC50 [1]: 0.1 nM
IC50 [2]: 301 nM
EC50 [7]: > 10000 nM
EC50 [8]: > 10000 nM
half-life [22]: 1 h
EC50 [9]: 2 nM

C=C[C@@H]1C[C@]1(NC(=O)[C@@H]1C[C@@H]2CN1C(=O)[C@H](C(C)(C)C)NC(=O)OCCCC/C=C/c1ccc3ccnc(c3c1)O2)C(=O)NS(=O)(=O)C1CC1
Ki [15]: 0.18 nM
IC50 [16]: 8.7 nM

CC[C@H](C)[C@H](NC(=O)[C@@H](NC[C@@H]1COCCCCCCCN(C(=O)[C@H](Cc2ccccc2)NC(=O)OC(C)(C)C)[C@@H](C)C(=O)N1)C(C)C)C(=O)N[C@@H](Cc1cnc[nH]1)C(=O)OC
IC50 [5]: 2700 nM

O=C1N[C@H](C(=O)O)CCCCCc2cccc(c2)C[C@H]1CS
IC50 [17]: 8 nM
IC50 [23]: 4 nM

O=C1N[C@H](C(=O)O)CCCCCc2ccccc2C[C@H]1CS
IC50 [17]: 3 nM
IC50 [23]: 8000 nM

N#Cc1ccccc1Oc1ccc2cccc(N3CCN(Cc4cnc[nH]4)CC3=O)c2c1
IC50 [1]: 4500 nM
